The values that follow come from patent US12448624B2, “Modified nucleic acid having improved treatment efficacy, and anticancer pharmaceutical composition containing same” (INTEROLIGO CORPORATION, priority 2018, dated 2025).

One data set is described as follows: in vivo. As to conditions: rat, iv. Here is the method: Sprague-Dawley male rats were subjected to induced anesthesia with isoflurane, which is an inhalation anesthetic, then a polyethylene (PE) tube (Clay Adams, Becton Dickinson, NJ, USA) was inserted into a carotid artery (for blood collection) and sutured with a suture, followed by fixing an end of the suture behind the neck. During surgery, anesthesia was maintained using ether and about 0.5 mL of physiological saline containing heparin (20 units/mL) was injected to prevent blood from clotting in a cannula. After the surgery is finished, the rats were placed in metabolic cages and allowed to recover completely from the anesthetic condition (4 to 5 hours), respectively. […] 1 and 2 ml/kg of drugs were administered intravenously. […] 5. 15. 30, 45, 60, 120, 360 and 720 minutes after the administration, 0.3 mL of blood was each collected through a […]. […] Then, the blood in the Eppendorf tube was immediately centrifuged, followed by storing the plasma.
All analytical procedures were implemented under conditions of shielding the tube. That is, all procedures were performed under quantification condition: SRM (selected reaction monitoring) mode (see Table 5 above), fixed phase condition: Hypersil gold C18, 1.9 μm, 100×2.1 mm^2 (Thermo Scientific, Matriks, Oslo, Norway), and mobile phase condition: distilled water (A) containing 0.1% formic acid and acetonitrile (B) (see Table 6 above).
Metformin as an internal standard substance (IS) was dissolved in acetonitrile to prepare another working solution of 645 ng/mL.
150 μL of the internal standard, that is, metformin was added to 50 μL of plasma (645 ng/mL in acetonitrile) and vortexed for 10 minutes, followed by performing centrifugation at 15,000 rpm and […] for 20 minutes. Thereafter, 150 μL of the supernatant was taken and transferred to another Eppendorf tube, and then the organic solvent was dried under a nitrogen stream. Then, 125 μL of tertiary distilled water was added to the dried Eppendorf tube, allowed to be redissolved. Then, the solution was vortexed for 5 minutes, centrifuged at 15,000 rpm and […] for 5 minutes. Thereafter, 100 μL of the supernatant was transferred to the vial for LC-MS/MS, 5 μL of the supernatant was injected and analyzed by LC-MS/MS.
Values of an area under the plasma concentration-time curve (AUCt) were calculated using a log-linear trapezoidal equation from the plasma concentration-time curves after the administration of drug to the final quantification time (specifically, the linear-trapezoidal equation is used in a section where the plasma concentration is increased, while in another section where plasma concentration is decreased, the trapezoidal equation is used by log transforming the concentration value). After oral administration, the highest plasma concentration (Cmax) and the time to reach the highest plasma concentration (Tmax) were determined from the plasma concentration-time curve. Values of the area (AUCinf) under the plasma concentration till infinite time-time curve were determined using the following equation. A terminal elimination rate constant (γZ) and half-life (t1/2) were determined from a slope of elimination of the plasma concentration. AUinf=AUCt+Ct/γZ(Ct: final quantification concentration, γZ: terminal elimination rate constant)

Data set [1] is described as follows: Stability of atelocollagen/collagen disk formulations in rat plasma. Format: in vitro ADME. As to conditions: 37° C. Here is the method: Sample treatment, calibration curve creation, and LC-MS/MS analysis conditions are the same as described above.
Sample treatment was conducted as follows. […] Thereafter, the supernatant was taken and then centrifuged again under the same conditions as above. Then, 5 μL of the concentrate was taken and diluted by 10-fold using the same rat plasma in order to measure a concentration in plasma (“plasma concentration”). […] The above sample treatment was conducted in the same manner as the calibration curve creation, followed by performing sample analysis under the same LC-MS/MS conditions.
In order to evaluate the stability of the IO101L/atelocollagen disk formulation in rat plasma, experiments were conducted with 5 groups (Groups 1-5) (see Table 12 below). Normal collagen (SK Co.) was used for comparison with atelocollagen.

For data set [2] the following is noted: mouse, in vivo. Here is the method: Male […]/severe combined immunodeficiency mice, NOD/Shi-scid, IL-2RγKO mice (NOG mice®) (Central Lab Animal Inc., Saeronbio Inc., Seoul) and female nu/nu athymic mice (Orientbio) were maintained in 12 hours light/12 hours dark cycle under pathogen-free conditions. At the time of surgery, 10 new pancreatic tumor specimens stored in the patient's primary tumor (Institutional Examination Committee No. 4-2017-0594) was placed on ice-cooled RPMI medium, PDX SOP of PDTX Cleanbench Department Laboratory Animal Resources (Yonsei Biomedical Research Institute, Seoul) was washed with cold PBS, and non-necrotic fragments were cut into small pieces (2×2×2 mm) to remove blood or lipid portions. […]
After skin incision in PDX mice, the control (No treatment), Gem-IP (; sol-gel type), IO101-IP (; sol-gel type), IO101/AC disk (2.0 mg/3.0%), IO101-Con/AC (2.0 mg/3.0%) and Gem/atelocollagen disk (0.12 mg/3.0%), respectively, were implanted locally by subcutaneous anesthetic dissection between skin and tumor. A tumor size was measured three times per week by caliper measurement (Mitutoyo, Absolute AOS Digmatic, Kawasaki, Japan), and a volume was calculated as described above. Tumor growth in drug-treated animals was expressed as a tumor growth rate (tumor volume/initial tumor volume) compared to vehicle-treated mice. […]

Data set [3] deals with patient-derived pancreatic cancer cells. As to the kind of experiment: PDX pancreatic cancer mouse model, TUNEL analysis. Format: in vivo. As to conditions: 1 month after implantation.
From the text: Untreated control mice were also included for comparison.
1 month after the disk implantation, mice were sacrificed, and tissue samples and blood were collected.

As a reminder, the AUC(0-inf) is total exposure, with the tail of the curve extrapolated. Read a low AUC(0-inf) as less exposure. A word on the AUC(0-t): it is exposure summed from dosing to a finite time, without extrapolation to infinity. Broadly, the Cmax is the peak of the concentration-time curve. Usually MRT stands for a mean duration of stay, worked out from the concentration-time curve. For orientation: Tmax means the time from dosing to the highest level. As a reminder, the Vd is a proportionality between amount in the body and measured concentration, not a real space. What is called clearance is the rate of elimination divided by the concentration. Low values mean inefficient removal, high ones efficient removal. Usually half-life stands for the time in which the quantity being followed falls by half. A higher half-life goes with slow decline.

In “in vivo” (male, Sprague-Dawley, 8 mg/kg), `Nc1ccn([C@@H]2O[C@H](CO)[C@@H](O)C2(F)F)c(=O)n1` [Gemcitabine, 2,2′-difluorodeoxycytidine] showed an AUC(0-inf) of 24500 ng·h/mL, an AUC(0-t) of 23200 ng·h/mL, a Cmax of 13300 ± 5640 ng/mL and a mean residence time MRT of 3.48 h. For the same compound, in “in vivo” (male, Sprague-Dawley, 8 mg/kg), the Tmax was 1 min, the volume of distribution (Vd) was determined as 1.15 ± 0.223 L/kg, the clearance was 5.59 ± 0.86 mL/min/kg and the “dFdU AUCt” value came to 265 ± 57.1 µg·min/mL. Moreover, in “in vivo” (male, Sprague-Dawley, 8 mg/kg), the “dFdU Cmax” value was found to be 477 ± 87.9 ng/mL, the “dFdU Tmax” value is recorded as 240 (120-360) min and the half-life worked out at 2.95 ± 0.475 h. This compound also displayed a concentration at 30 min in “in vivo” (male, Sprague-Dawley, Gemcitabine blood concentration, 30 minutes) of 5600 ng/mL. The concentration at 45 min in “in vivo” (male, Sprague-Dawley, Gemcitabine blood concentration, 45 minutes) is 3410 ng/mL. The same compound had a concentration at 60 min in “in vivo” (male, Sprague-Dawley, Gemcitabine blood concentration, 60 minutes) of 3550 ng/mL. The concentration at 120 min in the data set “in vivo” (male, Sprague-Dawley, Gemcitabine blood concentration, 120 minutes) is 2800 ng/mL. Further, in the data set “in vivo”, the “dFdU blood concentration, 1 minute” value is listed as “BLLoQ” and the “dFdU blood concentration, 5 minutes” value is listed as “BLLoQ”. Further, in data set [1] (2 hours incubation), the “dFdC Blood concentration” value is 218 µg/mL. The “dFdC Blood concentration, supernatant” value in data set [1] (supernatant (Ultracell-3K), 2 hours) was 232 µg/mL. Moreover, the PLT in data set [2] is recorded as 684.1 ± 246.3 X1000/μl. For the same compound, the “apoptosis (TUNEL analysis) in tumor” value in data set [3] is listed as “an apoptosis process was confirmed”.
